The conditions of data set [1]: cited from earlier work.
The nature of data set [2]: Absorption into the blood following sublingual versus oral administration of D-cycloserine. The class given is in vivo, Sprague-Dawley rats. The following applies: rat; for concentration at 0 min / concentration at 10 min / concentration at 20 min / concentration at 40 min / concentration at 80 min: male, Sprague-Dawley, plasma, 15 mg/kg, read-out: DCS plasma level; for concentration at 0 min: 0 minutes (baseline before DCS administration); for concentration at 10 min: 10 minutes elapsed; for concentration at 20 min: 20 minutes elapsed; for concentration at 40 min: 40 minutes elapsed; for concentration at 80 min: 80 minutes elapsed. The procedure:
Subjects: 18 male, Sprague-Dawley rats (Charles River, Raleigh N.C.).
Procedure: The rats were implanted with intravenous catheters using the methods of Thrivikraman et al., (“Jugular vein catheterization for repeated blood sampling in the unrestrained conscious rat” (2002) Brain Res. Brain Res. Protoc., 10(2), p. 84-94). Following two days of recovery, rats were lightly anesthetized with isofluorothane and given DCS either sublingually (n=10) or orally (n=8). D-cycloserine was dissolved in saline and given at a volume of 75 μL/rat sublingually and (after dilution by a factor of two) 150 μL/rat when administered orally (concentration of 15 mg/kg). Aliquots of 0.5-1.0 mL blood samples were collected: at baseline before DCS administration; and subsequently at 10, 20, 40, and 80 minutes after DCS administration. Blood samples were injected into pre-heparinized tubes and immediately placed on ice. Because the assays required at least 1 mL of plasma, samples from two rats given the same treatment and sampled at the same time were combined so that there were 25 samples from the sublingual group (10 rats/2×5 samples) and 20 samples from the oral group (8 rats/2×5 samples). Plasma was separated by centrifugation at 770 g for 10 minutes, placed in polypropylene tubes, frozen at −80° C., then shipped on dry ice to an outside laboratory to assay DCS levels. […] At the dosages studied, the resulting DCS plasma levels were near the lower detection limits of the assay.

For data set [3] the following is noted: typical doses for the treatment of tuberculosis (500-1000 mg/day), chronic dosing; cited from earlier work.
The conditions of data set [4]: sub-antimicrobial dose, cited from earlier work.
In data set [5] the test system is Mycobacterium tuberculosis strains. To be noted: typical Mycobacterium tuberculosis strains; cited from earlier work.

Consider one compound from patent US20100113453A1, “Sublingual Formulations of D-Cycloserine and Methods of Using Same” (priority 2007, published 2010).

Read-outs that look alike come from different tables or passages of the source.

Turning to `NC1CONC1=O` (stereo not drawn) [DCS, 4-amino-1,2-oxazolidin-3-one], the “serum concentrations generally maintained” value in data set [1] (dose of 500 mg/day, chronic treatment) was 25 to 30 µg/mL. In data set [1] (known oral tablets, primarily renal excretion), the half-life (in general, the time in which the quantity being followed falls by half) is 10 h. Moreover, the “time of peak serum concentrations after dosing” value in data set [1] (known oral tablets) was 3 to 8 h. Further, in data set [2] (other: sublingual, sublingual), the concentration at 0 min turned out to be 0 ng/mL, the concentration at 10 min amounted to 900 ng/mL, the concentration at 20 min was 1600 ng/mL and the concentration at 40 min is 4700 ng/mL. Besides, the concentration at 80 min in data set [2] (other: sublingual, sublingual) was found to be 5200 ng/mL. In data set [2] (oral), the concentration at 0 min is 0 ng/mL, the concentration at 10 min is 1600 ng/mL, the concentration at 20 min was 2300 ng/mL and the concentration at 40 min was determined as 5400 ng/mL. Also, the concentration at 80 min in data set [2] (oral) was 5400 ng/mL. Also, the “blood plasma concentrations after sublingual administration relative to oral administration” value in data set [2] (sublingual versus oral) is recorded as “comparable to those achieved by oral administration”. In data set [3], the “side effects in treated subjects” value was “significant neurological side effects”. The peak serum concentrations result in data set [4] (child subject, less than or equal to 2 mg/kg) is “less than or equal to 5 μg/mL”. Also, in data set [4] (less than or equal to 2 mg/kg and greater than about 0.2 mg/kg), the peak serum concentrations entry was “less than or equal to 5 μg/mL”. Moreover, in data set [5], the “minimum inhibitory concentrations (MIC) in vitro” value was 6 to 25 µg/mL.
